Measured values reported in PMC13288994, “Identification and characterization of novel chikungunya virus polymerase inhibitors” (Journal of Virology, 2026).
Where two headings read alike, the source gives them in different places.

Assays:
in vitro [1] = settings: African green monkey
HPIV3-nLuc = test: microbe, parasite or virus in culture; assay type: cell-based; settings: Human respirovirus 3, Vero C1008; VeroE6 cells; read-out: Antiviral potency (EC50 [µM]) HPIV3
RSV A2-L19F = test: microbe, parasite or virus in culture; assay type: cell-based; settings: human respiratory syncytial virus; Hep-2 cells; read-out: Antiviral potency (EC50 [µM]) RSV
VSV-nLuc = test: microbe, parasite or virus in culture; assay type: cell-based; settings: Vesicular stomatitis virus, Vero C1008, read-out: Antiviral potency (EC50 [µM]) VSV
SARS-CoV-2-nLuc = test: microbe, parasite or virus in culture; assay type: cell-based; settings: Severe acute respiratory syndrome coronavirus 2; VeroE6-TMPRSS2 cells; read-out: Antiviral potency (EC50 [µM]) SARS-CoV-2
[2] = tested on: CHIKV-nLuc (181/25 strain); test: microbe, parasite or virus in culture; assay type: cell-based, Chikungunya virus; settings: Chikungunya virus, 384-well format, read 20 h after infection, read-out: Normalized percent inhibition in primary screen
SINV-GLuc = test: microbe, parasite or virus in culture; assay type: cell-based; settings: Sindbis virus, Vero C1008; VeroE6 cells; read-out: Antiviral potency (EC50 [µM]) SINV
in vitro [3] = settings: human
CHIKV replicon = test: microbe, parasite or virus in culture; settings: Chikungunya virus, U2OS, read-out: Antiviral potency (EC50 [µM]) CHKV replicon
in vitro [4] = settings: human; remark: listed apart in the source
VEEV-TC83-nLuc = test: microbe, parasite or virus in culture; assay type: cell-based; settings: Venezuelan equine encephalitis virus, Vero C1008, read-out: Antiviral potency (EC50 [µM]) VEEV
CHIKV-nLuc [5] = assay type: cell-based, Chikungunya virus; settings: 20 µM, U-2 OS, reporter read at 24 h
[6] = target: T1, RRV trans-replicase (P1234) (Ross river virus, UniProt P13887); test: Trans-replicase assay, RRV; assay type: cell-based; settings: 100 µM, U-2 OS, 20 h
T1 construct: expression of the P1234 polyprotein drives replication of a reporter RNA template; expressed in transfected cells; host or cells: U-2 OS
Experimental: (§1) U-2 OS cells were seeded at 75,000 cells per well in 24-well plates and cultured for 24 h. Cells were then co-transfected with 250 ng of plasmid encoding template RNA and 250 ng of plasmid encoding P1234 WT ([72], [73]), using Lipofectamine LTX with PLUS reagent (ThermoFisher Scientific) following the manufacturer’s instructions. After 4 h of post-transfection, medium containing 100 µM of compounds or DMSO was added to the cells. Cells were then incubated for 20 h, lysed, and GLuc activity was quantified using the Dual-Luciferase Reporter Assay System (Promega). Luciferase activities were normalized to those of the DMSO-treated controls.

[7] = target: T2, SINV trans-replicase (P1234) (Sindbis virus, UniProt P03317); test: Trans-replicase assay, SINV; assay type: cell-based; settings: 100 µM, U-2 OS, 20 h
T2 construct: expression of the P1234 polyprotein drives replication of a reporter RNA template; expressed in transfected cells; host or cells: U-2 OS
Experimental: as §1

[8] = target: VEEV trans-replicase (P1234) (Venezuelan equine encephalitis virus, UniProt P36328); assay type: cell-based
[9] = target: T3, CHIKV trans-replicase (P1234) (Chikungunya virus, UniProt Q8JUX6); test: Trans-replicase assay, CHIKV; assay type: cell-based; settings: 100 µM, U-2 OS, 20 h
T3 construct: expression of the P1234 polyprotein drives replication of a reporter RNA template; expressed in transfected cells; host or cells: U-2 OS
Experimental: as §1

CHIKV = test: Selection for viral resistance by serial passage in U-2 OS cells, whole-genome sequencing; assay type: cell-based, Chikungunya virus; settings: passage 1, MOI 1 FFU/cell, 16 h
[10] = Cytotoxicity assay (PrestoBlue, 24 h) in NHDF cells; assay type: cell-based, Human; settings: human, NHDF cells
Experimental: NHDF cells were seeded at 10,000 cells per well in 24-well plates and cultured for 24 h. Cells were then treated with threefold serial dilutions of compounds starting at 500 µM and incubated for 24 h. DMSO was included as a negative control for normalization. Following treatment, cells were incubated with PrestoBlue reagent (ThermoFisher Scientific) for 1 h at 37°C, and fluorescence was measured using a PerkinElmer Victor X5 multilabel plate reader. The CC50 values were determined by normalized non-linear regression with a variable slope model in Prism (GraphPad).

CHIKV-nLuc [11] = test: microbe, parasite or virus in culture; assay type: cell-based, Chikungunya virus; settings: Chikungunya virus, U2OS; MOI 0.1 FFU/cell, 24 hpi, in-house synthesized compound; read-out: EC50 CHIKV-nLuc, U-2 OS
SINV = test: microbe, parasite or virus in culture; assay type: cell-based, Sindbis virus; settings: Sindbis virus, U2OS, read-out: EC50 virus production, SINV
ONNV = test: organism not typed; assay type: cell-based, o'nyong-nyong virus; settings: U2OS, read-out: EC50 virus production, ONNV
[12] = target: T4, MAYV trans-replicase (P1234) (Mayaro virus, UniProt Q8QZ73); test: Trans-replicase assay, MAYV; assay type: cell-based; settings: 100 µM, U-2 OS, 20 h
T4 construct: expression of the P1234 polyprotein drives replication of a reporter RNA template; expressed in transfected cells; host or cells: U-2 OS
Experimental: as §1

[13] = target: EEEV trans-replicase (P1234) (Eastern equine encephalitis virus, UniProt Q306W6); assay type: cell-based
CHIKV-nLuc [14] = test: microbe, parasite or virus in culture; assay type: cell-based, Chikungunya virus
[15] = Cytotoxicity assay (PrestoBlue, 24 h) in U-2 OS cells; assay type: cell-based, Human; settings: human, U-2 OS cells
[16] = target: T5, ONNV trans-replicase (P1234) (O'nyong-nyong virus, UniProt P13886); test: Trans-replicase assay, ONNV; assay type: cell-based; settings: 100 µM, U-2 OS, 20 h
T5 construct: expression of the P1234 polyprotein drives replication of a reporter RNA template; expressed in transfected cells; host or cells: U-2 OS
Experimental: as §1

RRV = test: microbe, parasite or virus in culture; assay type: cell-based, Ross River virus; settings: Ross River virus, U2OS, read-out: EC50 virus production, RRV
[17] = target: T6, BFV trans-replicase (P1234) (Barmah forest virus, UniProt P87515); test: Trans-replicase assay, BFV; assay type: cell-based; settings: 100 µM, U-2 OS, 20 h
T6 construct: expression of the P1234 polyprotein drives replication of a reporter RNA template; expressed in transfected cells; host or cells: U-2 OS
Experimental: as §1

[18] = target: T7, SFV trans-replicase (P1234) (Semliki forest virus, UniProt P08411); test: Trans-replicase assay, SFV; assay type: cell-based; settings: 100 µM, U-2 OS, 20 h
T7 construct: expression of the P1234 polyprotein drives replication of a reporter RNA template; expressed in transfected cells; host or cells: U-2 OS
Experimental: as §1

CHIKV 181/25 = test: Virus yield dose-response in U-2 OS cells, CHIKV; assay type: cell-based, Chikungunya virus; settings: Chikungunya virus, U2OS
MAYV = test: microbe, parasite or virus in culture; assay type: cell-based, Mayaro virus; settings: Mayaro virus, U2OS, read-out: EC50 virus production, MAYV
SFV = test: microbe, parasite or virus in culture; assay type: cell-based, Semliki Forest virus; settings: Semliki Forest virus, U2OS, read-out: EC50 virus production, SFV

Sequence of EEEV trans-replicase (P1234) (Q306W6 whole entry): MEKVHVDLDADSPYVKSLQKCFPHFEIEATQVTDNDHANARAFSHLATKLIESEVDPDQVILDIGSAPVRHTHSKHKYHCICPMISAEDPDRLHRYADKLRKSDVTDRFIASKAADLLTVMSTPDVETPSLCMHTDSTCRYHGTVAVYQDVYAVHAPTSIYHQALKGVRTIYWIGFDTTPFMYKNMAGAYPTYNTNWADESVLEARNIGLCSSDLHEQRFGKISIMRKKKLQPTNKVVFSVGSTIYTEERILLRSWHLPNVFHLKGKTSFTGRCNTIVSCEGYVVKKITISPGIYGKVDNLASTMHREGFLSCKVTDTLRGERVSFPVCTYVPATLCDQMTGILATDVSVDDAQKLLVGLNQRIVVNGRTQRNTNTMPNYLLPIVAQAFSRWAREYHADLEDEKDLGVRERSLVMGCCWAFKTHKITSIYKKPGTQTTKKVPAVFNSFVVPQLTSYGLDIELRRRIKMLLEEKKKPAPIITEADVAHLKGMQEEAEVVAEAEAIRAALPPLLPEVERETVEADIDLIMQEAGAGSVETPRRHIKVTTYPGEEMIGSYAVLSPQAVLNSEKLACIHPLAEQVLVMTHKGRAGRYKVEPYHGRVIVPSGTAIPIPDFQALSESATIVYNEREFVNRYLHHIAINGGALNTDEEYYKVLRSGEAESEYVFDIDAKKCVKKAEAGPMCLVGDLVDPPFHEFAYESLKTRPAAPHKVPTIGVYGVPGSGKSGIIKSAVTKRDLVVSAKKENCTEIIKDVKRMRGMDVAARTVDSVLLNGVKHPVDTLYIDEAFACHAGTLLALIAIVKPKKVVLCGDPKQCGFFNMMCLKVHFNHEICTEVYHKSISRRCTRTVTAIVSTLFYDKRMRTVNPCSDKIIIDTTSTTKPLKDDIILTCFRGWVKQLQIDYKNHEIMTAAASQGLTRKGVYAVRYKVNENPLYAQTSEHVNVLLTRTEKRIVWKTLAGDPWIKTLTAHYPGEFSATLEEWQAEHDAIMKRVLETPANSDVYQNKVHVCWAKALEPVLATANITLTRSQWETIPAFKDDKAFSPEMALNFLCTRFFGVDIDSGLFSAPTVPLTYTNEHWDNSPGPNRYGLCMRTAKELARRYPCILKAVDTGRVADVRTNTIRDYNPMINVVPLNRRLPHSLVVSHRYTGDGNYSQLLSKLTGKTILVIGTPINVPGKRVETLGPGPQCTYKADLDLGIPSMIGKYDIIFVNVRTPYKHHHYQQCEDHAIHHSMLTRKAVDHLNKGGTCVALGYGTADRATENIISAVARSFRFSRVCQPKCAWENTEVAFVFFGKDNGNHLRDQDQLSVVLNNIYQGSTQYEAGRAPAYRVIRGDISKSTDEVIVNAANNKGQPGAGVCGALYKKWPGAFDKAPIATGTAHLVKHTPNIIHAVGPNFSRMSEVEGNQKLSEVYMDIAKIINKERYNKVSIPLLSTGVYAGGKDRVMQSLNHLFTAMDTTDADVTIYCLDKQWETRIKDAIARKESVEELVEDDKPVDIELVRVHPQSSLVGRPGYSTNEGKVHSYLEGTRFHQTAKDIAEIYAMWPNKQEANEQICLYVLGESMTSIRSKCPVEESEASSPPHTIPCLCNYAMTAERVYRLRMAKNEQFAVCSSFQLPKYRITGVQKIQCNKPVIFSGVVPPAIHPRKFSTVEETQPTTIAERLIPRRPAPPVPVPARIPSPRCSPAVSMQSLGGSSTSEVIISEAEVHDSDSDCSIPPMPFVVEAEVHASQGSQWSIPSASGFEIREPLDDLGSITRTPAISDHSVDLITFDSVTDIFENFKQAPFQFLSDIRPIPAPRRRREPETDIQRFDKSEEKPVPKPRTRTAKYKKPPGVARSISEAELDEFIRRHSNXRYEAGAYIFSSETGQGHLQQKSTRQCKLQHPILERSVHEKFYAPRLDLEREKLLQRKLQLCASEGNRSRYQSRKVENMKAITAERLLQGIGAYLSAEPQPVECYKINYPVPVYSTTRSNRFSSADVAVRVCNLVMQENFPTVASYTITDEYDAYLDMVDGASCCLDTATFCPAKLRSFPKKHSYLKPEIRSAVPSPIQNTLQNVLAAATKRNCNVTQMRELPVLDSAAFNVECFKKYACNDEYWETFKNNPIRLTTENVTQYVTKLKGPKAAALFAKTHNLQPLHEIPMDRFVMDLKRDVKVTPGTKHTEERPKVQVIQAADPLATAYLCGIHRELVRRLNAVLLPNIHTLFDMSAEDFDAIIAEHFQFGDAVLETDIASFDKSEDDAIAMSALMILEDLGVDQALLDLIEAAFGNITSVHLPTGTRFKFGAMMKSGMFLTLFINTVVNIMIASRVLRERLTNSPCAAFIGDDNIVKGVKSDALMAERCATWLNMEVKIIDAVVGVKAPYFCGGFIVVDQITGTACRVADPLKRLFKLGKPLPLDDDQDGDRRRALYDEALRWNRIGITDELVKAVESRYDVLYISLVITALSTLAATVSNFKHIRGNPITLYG
Sequence of EEEV trans-replicase (P1234) (Q306W6 1-533 partner limits assumed): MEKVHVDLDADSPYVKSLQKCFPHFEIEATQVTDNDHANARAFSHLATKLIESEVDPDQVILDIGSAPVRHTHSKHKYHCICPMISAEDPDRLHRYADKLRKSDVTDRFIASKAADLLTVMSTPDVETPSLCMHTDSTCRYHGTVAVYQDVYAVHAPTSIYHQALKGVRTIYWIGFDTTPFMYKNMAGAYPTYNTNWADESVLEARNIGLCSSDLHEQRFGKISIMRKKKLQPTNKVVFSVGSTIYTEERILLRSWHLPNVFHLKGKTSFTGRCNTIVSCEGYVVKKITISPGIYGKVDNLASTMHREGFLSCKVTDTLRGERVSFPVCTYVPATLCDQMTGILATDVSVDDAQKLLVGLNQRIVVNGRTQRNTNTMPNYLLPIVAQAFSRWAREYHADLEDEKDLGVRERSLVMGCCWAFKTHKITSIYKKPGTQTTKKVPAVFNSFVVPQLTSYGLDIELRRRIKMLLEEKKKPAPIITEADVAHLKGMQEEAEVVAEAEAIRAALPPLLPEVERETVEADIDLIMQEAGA
Sequence of EEEV trans-replicase (P1234) (Q306W6 534-1327 partner limits assumed): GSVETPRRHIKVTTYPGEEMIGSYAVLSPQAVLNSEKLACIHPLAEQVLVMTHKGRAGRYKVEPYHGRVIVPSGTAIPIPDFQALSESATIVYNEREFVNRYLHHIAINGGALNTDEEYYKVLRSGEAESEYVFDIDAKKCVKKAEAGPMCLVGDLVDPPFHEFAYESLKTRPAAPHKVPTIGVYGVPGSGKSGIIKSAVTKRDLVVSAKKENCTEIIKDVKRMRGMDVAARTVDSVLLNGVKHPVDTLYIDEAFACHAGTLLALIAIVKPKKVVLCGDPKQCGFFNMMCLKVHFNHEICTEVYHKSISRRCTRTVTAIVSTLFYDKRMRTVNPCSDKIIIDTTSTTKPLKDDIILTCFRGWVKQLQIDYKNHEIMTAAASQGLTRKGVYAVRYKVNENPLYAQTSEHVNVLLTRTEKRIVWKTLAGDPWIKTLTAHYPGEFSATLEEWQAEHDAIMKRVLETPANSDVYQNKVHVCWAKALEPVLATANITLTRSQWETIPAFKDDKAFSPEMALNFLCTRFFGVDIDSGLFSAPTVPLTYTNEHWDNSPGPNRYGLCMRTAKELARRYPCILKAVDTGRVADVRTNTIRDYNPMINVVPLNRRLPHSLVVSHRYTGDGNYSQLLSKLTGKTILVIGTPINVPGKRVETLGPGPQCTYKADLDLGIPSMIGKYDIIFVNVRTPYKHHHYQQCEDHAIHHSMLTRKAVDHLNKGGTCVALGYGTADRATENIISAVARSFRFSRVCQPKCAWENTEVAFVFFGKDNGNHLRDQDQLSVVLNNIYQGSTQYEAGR

CCN1CCc2nc3sc(C(=O)c4ccccc4)c(C)c3cc2C1 [GAP-1022776]
CC50 (in vitro [1]): 25.2 µM | EC50 (HPIV3-nLuc): > 20 µM | EC50 (RSV A2-L19F): > 10 µM | EC50 (VSV-nLuc): > 20 µM | EC50 (SARS-CoV-2-nLuc): > 20 µM | inhibition at 5 µM [2]: 85.7% | EC50 (SINV-GLuc): > 20 µM | CC50 (in vitro [3]): 19.2 µM

Cc1ccc2sc(N(CCCN(C)C)C(=O)c3nc4ccccc4s3)nc2c1C [GAP-1041908]
CC50 (in vitro [1]): 34.9 µM | EC50 (CHIKV replicon): 32.1 µM | selectivity ratio (in vitro [4]): < 10 | EC50 (HPIV3-nLuc): 41 µM | EC50 (VEEV-TC83-nLuc): 18.8 µM | EC50 (VSV-nLuc): 32.7 µM | EC50 (SARS-CoV-2-nLuc): 28 µM | inhibition at 5 µM [2]: 94.7% | EC50 (SINV-GLuc): 18.9 µM | CC50 (in vitro [3]): 31.4 µM

CCNc1cc(C)nc(N2CCN(C(=O)c3cccc4ccccc34)CC2)n1 [GAP-1066658]
CC50 (in vitro [1]): 88.5 µM | EC50 (CHIKV replicon): 0.61 µM | EC50 (HPIV3-nLuc): ~100 µM | EC50 (RSV A2-L19F): > 100 µM | EC50 (VEEV-TC83-nLuc): 75.8 µM | EC50 (VSV-nLuc): 60.9 µM | EC50 (SARS-CoV-2-nLuc): ~100 µM | inhibition at 5 µM [2]: 95.4% | EC50 (SINV-GLuc): > 100 µM | CC50 (in vitro [3]): 61.5 µM

O=C(CN1C(=O)CNC1=O)NCc1n[nH]c2c1CCCCC2 [GAP-1173149, 2-(2,5-dioxoimidazolidin-1-yl)-N-(1,4,5,6,7,8-hexahydrocyclohepta[d]pyrazol-3-ylmethyl)acetamide]
Time-of-addition profile (stage of replication targeted) (CHIKV-nLuc [5]): act on a stage after viral entry | Effect on RNA replication (GLuc) in trans-replicase assay, RRV [6]: suppressed replication | CC50 (in vitro [1]): > 100 µM | Effect on RNA replication (GLuc) in trans-replicase assay, SINV [7]: no significant effect | EC50 (CHIKV replicon): 5.3 µM | Effect on RNA replication (GLuc) in trans-replicase assay, VEEV [8]: did not show significant VEEV inhibition | Effect on RNA replication (GLuc) in trans-replicase assay, CHIKV [9]: suppressed replication | EC50 (HPIV3-nLuc): > 100 µM | Reduction of virus titers at P1 compared with DMSO-treated controls (CHIKV): 1 log | EC50 (RSV A2-L19F): > 10 µM | EC50 (VEEV-TC83-nLuc): 52.3 µM | CC50 at 24 h [10]: > 500 µM | EC50 (CHIKV-nLuc [11]): 13.6 ± 0.16 µM | EC50 (SINV): > 100 µM | EC50 (ONNV): 5.22 ± 1.11 µM | Effect on RNA replication (GLuc) in trans-replicase assay, MAYV [12]: no significant effect | Effect on RNA replication (GLuc) in trans-replicase assay, EEEV [13]: effectively inhibited | EC50 (CHIKV-nLuc [14]; Chikungunya virus, NHDF, MOI 0.1 FFU/cell, 24 hpi, in-house synthesized compound): 11.6 µM | selectivity index (SI = CC50/EC50) (CHIKV-nLuc [14]; NHDF cells): > 43 | CC50 at 24 h [15]: > 500 µM | EC50 (VSV-nLuc): > 100 µM | EC50 (SARS-CoV-2-nLuc): > 100 µM | Effect on RNA replication (GLuc) in trans-replicase assay, ONNV [16]: suppressed replication | EC50 (RRV): 10 ± 0.64 µM | Effect on RNA replication (GLuc) in trans-replicase assay, BFV [17]: effectively inhibited | Effect on RNA replication (GLuc) in trans-replicase assay, SFV [18]: no significant effect | EC50 (CHIKV 181/25; MOI 0.1, supernatant 24 hpi titered by FFA (Fig. 5), read-out: EC50 virus production, CHIKV): 10.2 ± 0.95 µM | EC50 (CHIKV 181/25; resistance study (Fig. 7), read-out: EC50 virus production, CHIKV WT): 9.15 ± 1.62 µM | inhibition at 5 µM [2]: 88.7% | EC50 (SINV-GLuc): > 100 µM | CC50 (in vitro [3]): > 100 µM | EC50 (MAYV): > 100 µM | EC50 (SFV): > 100 µM

CCNc1nc(C)cc(N2CCN(C(=O)c3ccccc3Br)CC2)n1 [GAP-1354666]
inhibition at 5 µM [2]: 82.5%

Cn1nc(CN(C(=O)c2ccc(F)cc2)c2ccccc2)c2c1CCN(S(=O)(=O)Cc1ccccc1F)C2 [GAP-1081237]
CC50 (in vitro [1]): > 100 µM | EC50 (CHIKV replicon): 12.4 µM | EC50 (HPIV3-nLuc): 64.9 µM | EC50 (RSV A2-L19F): > 10 µM | EC50 (VEEV-TC83-nLuc): 10 µM | EC50 (VSV-nLuc): 65.2 µM | EC50 (SARS-CoV-2-nLuc): > 100 µM | inhibition at 5 µM [2]: 80.2% | EC50 (SINV-GLuc): 65.7 µM | CC50 (in vitro [3]): > 100 µM
